Patent EP1680415B1, “PYRROLIDINYL UREA DERIVATIVES AS ANGIOGENESIS INHIBITORS” (ABBOTT LABORATORIES, priority 2003, dated 2005)

Tested on: HMVEC
Experiment: human microvascular endothelial (HMVEC) migration assay
Format: cell-based
Conditions: Inhibition of HMVEC migration, activators 15 ng/mL bFGF/VEGF, 4 hours at 37 °C, compared to a positive control; for inhibition at 0.0001 µM: Homo sapiens, 0.1 nM
Procedure: The human microvascular endothelial (HMVEC) migration assay was run according to the procedure of S. S. Tolsma, O. V. Volpert, D. J. Good, W. F. Frazier, P. J. Polverini and N. Bouck, J. Cell Biol. 122, 497-511 (1993).
The HMVEC migration assay was carried out using Human Microvascular Endothelial Cells-Dermal (single donor) and Human Microvascular Endothelial Cells, (neonatal). The BCE or HMVEC cells were starved overnight in DME containing 0.01% bovine serum albumin (BSA). Cells were then harvested with trypsin and resuspended in DME with 0.01 % BSA at a concentration of 1.5 X 10^6 cells per mL. Cells were added to the bottom of a 48 well modified Boyden chamber (Nucleopore Corporation, Cabin John, MD). The chamber was assembled and inverted, and cells were allowed to attach for 2 hours at 37 °C to polycarbonate chemotaxis membranes (5 µm pore size) that had been soaked in 0.01 % gelatin overnight and dried. The chamber was then reinverted, and test substances (total volume of 50 µL), including activators, 15 ng/mL bFGF/VEGF, were added to the wells of the upper chamber. The apparatus was incubated for 4 hours at 37 °C. Membranes were recovered, fixed and stained (Diff Quick, Fisher Scientific) and the number of cells that had migrated to the upper chamber per 3 high power fields counted. Background migration to DME + […] was subtracted and the data reported as the number of cells migrated per 10 high power fields (400X) or, when results from multiple experiments were combined, as the percent inhibition of migration compared to a positive control.

| Compound | % Inhibition @ 0.01 nM (0.01 nM) [%] | inhibition at 0.0001 µM [%] |
| --- | --- | --- |
| 4-methyl-N-{(3R)-1-[(6-methylpyridin-3-yl)carbonyl]pyrrolidin-3-yl}-1,4-diazepane-1-carboxamide [Example 94] | 57 |  |
| Cc1ccc(C(=O)N2CC[C@@H](NC(=O)NCc3ccccc3)C2)cn1 [Example 1, N-benzyl-N'-{(3R)-1-[(6-methylpyridin-3-yl)carbonyl]pyrrolidin-3-yl}urea] |  | 80 |
| Cc1ccc(C(=O)N2CC[C@@H](NC(=O)N3CCCC3)C2)cn1 [Example 2, N-{(3R)-1-[(6-methyl-3-pyridinyl)carbonyl]-3-pyrrolidinyl}-1-pyrrolidinecarboxamide] |  | 98 |
| Cc1ccc(C(=O)N2CC[C@@H](NC(=O)NCCCN3CCOCC3)C2)cn1 [Example 3, N-{(3R)-1-[(6-methyl-3-pyridinyl)carbonyl]-3-pyrrolidinyl}-N'-[3-(4-morpholinyl)propyl]urea] |  | 60 |
| Cc1ccc(C(=O)N2CC[C@@H](NC(=O)NCCc3c[nH]cn3)C2)cn1 [Example 4, N-[2-(1H-imidazol-4-yl)ethyl]-N'-{(3R)-1-[(6-methyl-3-pyridinyl)carbonyl]-3-pyrrolidinyl}urea] |  | 69 |
| Cc1ccc(C(=O)N2CC[C@@H](NC(=O)NCCc3c[nH]c4ccccc34)C2)cn1 [Example 5, N-[2-(1H-indol-3-yl)ethyl]-N'-{(3R)-1-[(6-methyl-3-pyridinyl)carbonyl]-3-pyrrolidinyl}urea] |  | 59 |
| CCNC(=O)N[C@@H]1CCN(C(=O)c2ccc(C)nc2)C1 [Example 6, N-ethyl-N'-{(3R)-1-[(6-methyl-3-pyridinyl)carbonyl]-3-pyrrolidinyl}urea] |  | 70 |
| Cc1ccc(C(=O)N2CC[C@@H](NC(=O)NCC(C)C)C2)cn1 [Example 7, N-isobutyl-N'-{(3R)-1-[(6-methyl-3-pyridinyl)carbonyl]-3-pyrrolidinyl}urea] |  | 90 |
| CCCC(C)NC(=O)N[C@@H]1CCN(C(=O)c2ccc(C)nc2)C1 (stereo partly drawn) [Example 8, N-(1-methylbutyl)-N'-{(3R)-1-[(6-methyl-3-pyridinyl)carbonyl]-3-pyrrolidinyl}urea] |  | 56 |
| Cc1ccc(C(=O)N2CC[C@@H](NC(=O)NCC(C)(C)C)C2)cn1 [Example 9, N-{(3R)-1-[(6-methyl-3-pyridinyl)carbonyl]-3-pyrrolidinyl}-N'-neopentylurea] |  | 71 |
| Cc1ccc(C(=O)N2CC[C@@H](NC(=O)NCCC(C)(C)C)C2)cn1 [Example 10, N-(3,3-dimethylbutyl)-N'-{(3R)-1-[(6-methyl-3-pyridinyl)carbonyl]-3-pyrrolidinyl}urea] |  | 65 |
| Cc1ccc(C(=O)N2CC[C@@H](NC(=O)NCC(F)(F)F)C2)cn1 [Example 11, N-{(3R)-1-[(6-methyl-3-pyridinyl)carbonyl]-3-pyrrolidinyl}-N'-(2,2,2-trifluoroethyl)urea] |  | 81 |
| COCC(C)NC(=O)N[C@@H]1CCN(C(=O)c2ccc(C)nc2)C1 (stereo partly drawn) [Example 12, N-(2-methoxy-1-methylethyl)-N'-{(3R)-1-[(6-methyl-3-pyridinyl)carbonyl]-3-pyrrolidinyl}urea] |  | 77 |
| CCOCCNC(=O)N[C@@H]1CCN(C(=O)c2ccc(C)nc2)C1 [Example 13, N-(2-ethoxyethyl)-N'-{(3R)-1-[(6-methyl-3-pyridinyl)carbonyl]-3-pyrrolidinyl}urea] |  | 83 |
| Cc1ccc(C(=O)N2CC[C@@H](NC(=O)NCC3CCOC3)C2)cn1 (stereo partly drawn) [Example 14, N-{(3R)-1-[(6-methyl-3-pyridinyl)carbonyl]-3-pyrrolidinyl}-N'-(tetrahydro-3-furanylmethyl)urea] |  | 57 |
| Cc1ccc(C(=O)N2CC[C@@H](NC(=O)NCC#N)C2)cn1 [Example 15, N-(cyanomethyl)-N'-{(3R)-1-[(6-methyl-3-pyridinyl)carbonyl]-3-pyrrolidinyl}urea] |  | 64 |
| C#CCNC(=O)N[C@@H]1CCN(C(=O)c2ccc(C)nc2)C1 [Example 16, N-{(3R)-1-[(6-methyl-3-pyridinyl)carbonyl]-3-pyrrolidinyl}-N'-2-propynylurea] |  | 72 |
| Cc1ccc(C(=O)N2CC[C@@H](NC(=O)NCC3CC3)C2)cn1 [Example 17, N-(cyclopropylmethyl)-N'-{(3R)-1-[(6-methyl-3-pyridinyl)carbonyl]-3-pyrrolidinyl}urea] |  | 76 |
| Cc1ccc(C(=O)N2CC[C@@H](NC(=O)NC3CCC3)C2)cn1 [Example 18, N-cyclobutyl-N'-{(3R)-1-[(6-methyl-3-pyridinyl)carbonyl]-3-pyrrolidinyl}urea] |  | 61 |
| Cc1ccc(C(=O)N2CC[C@@H](NC(=O)NC3CCCCC3)C2)cn1 [Example 19, N-cyclohexyl-N'-{(3R)-1-[(6-methyl-3-pyridinyl)carbonyl]-3-pyrrolidinyl}urea] |  | 63 |
| Cc1ccc(C(=O)N2CC[C@@H](NC(=O)NC3CCC(C)CC3)C2)cn1 (stereo partly drawn) [Example 20, N-(4-methylcyclohexyl)-N'-{(3R)-1-[(6-methyl-3-pyridinyl)carbonyl]-3-pyrrolidinyl}urea] |  | 67 |
| Cc1ccc(C(=O)N2CC[C@@H](NC(=O)NCC3CCCCC3)C2)cn1 [Example 21, N-(cyclohexylmethyl)-N'-{(3R)-1-[(6-methyl-3-pyridinyl)carbonyl]-3-pyrrolidinyl}urea] |  | 90 |
| Cc1ccc(C(=O)N2CC[C@@H](NC(=O)NC3CCCCCC3)C2)cn1 [Example 22, N-cycloheptyl-N'-{(3R)-1-[(6-methyl-3-pyridinyl)carbonyl]-3-pyrrolidinyl}urea] |  | 70 |
| Cc1ccc(C(=O)N2CC[C@@H](NC(=O)N[C@H](CO)CC(C)C)C2)cn1 [Example 23, N-[(1S)-1-(hydroxymethyl)-3-methylbutyl]-N'-{(3R)-1-[(6-methyl-3-pyridinyl)carbonyl]-3-pyrrolidinyl}urea] |  | 93 |
| Cc1ccc(C(=O)N2CC[C@@H](NC(=O)N[C@@H](CO)CC(C)C)C2)cn1 [Example 24, N-[(1R)-1-(hydroxymethyl)-3-methylbutyl]-N'-{(3R)-1-[(6-methyl-3-pyridinyl)carbonyl]-3-pyrrolidinyl}urea] |  | 70 |
| Cc1ccc(C(=O)N2CC[C@@H](NC(=O)N[C@H](CO)c3ccccc3)C2)cn1 [Example 25, N-[(1S)-2-hydroxy-1-phenylethyl]-N'-{(3R)-1-[(6-methyl-3-pyridinyl)carbonyl]-3-pyrrolidinyl}urea] |  | 80 |
| Cc1ccc(C(=O)N2CC[C@@H](NC(=O)NCCCOC(C)C)C2)cn1 [Example 26, N-(3-isopropoxypropyl)-N'-{(3R)-1-[(6-methyl-3-pyridinyl)carbonyl]-3-pyrrolidinyl}urea] |  | 75 |
| Cc1ccc(C(=O)N2CC[C@@H](NC(=O)NCC(O)CO)C2)cn1 (stereo partly drawn) [Example 27, N-(2,3-dihydroxypropyl)-N'-{(3R)-1-[(6-methyl-3-pyridinyl)carbonyl]-3-pyrrolidinyl}urea] |  | 83 |
| COc1ccc2[nH]cc(CCNC(=O)N[C@@H]3CCN(C(=O)c4ccc(C)nc4)C3)c2c1 [Example 29, N-[2-(5-methoxy-1H-indol-3-yl)ethyl]-N'-{(3R)-1-[(6-methyl-3-pyridinyl)carbonyl]-3-pyrrolidinyl}urea] |  | 92 |
